According to patent US8110217B2, “Sphingomyelin liposomes for the treatment of hyperactive bladder disorders” (priority 2001, dated 2012):
Values joined by “and” are separate entries in the source; they are usually repeats but may differ in a detail not shown here. Equal values may be shown once. “Also recorded” adds a separate entry of the source.

System: acute hyperactive bladder
Test: Continuous CMG, acute hyperactive bladder model with intravesical PS and KCl (Examples 7-8)
Type: in vivo, female Sprague-Dawley rats
Experimental: An animal model for acute hyperactive bladder in rats was developed using intravesical infusion of PS, an agent used to break down urothelial barrier function and physiological concentrations of KCl.
Continuous CMGs were performed in urethane-anesthetized female rats. The bladder was filled (0.04 ml/min) with normal saline followed by intravesical infusion for a 60 minute period with a test solution comprising either KCl (100 or 500 mM) or PS (10 or 30 mg/ml). Following this, 10 mg/ml PS treated animals were infused intravesically with 100, 300 or 500 mM KCl. Some animals were pretreated with capsaicin ([…], sc) four days before the experiments.
Animal Preparation. The study was performed on 40 female Sprague-Dawley rats weighing 250-300 gm. Animals were anesthetized with 1.2 gm/kg urethane injected subcutaneously. Body temperature was maintained in the physiological range using a heating lamp.
Cystometrogram (CMG). PE-50 tubing (Clay-Adams, Parsippany, N.J.) was inserted into the bladder through the urethra and connected via a three-way stopcock to a pressure transducer and to a syringe pump. This was used for recording intravesical pressure and for infusing solutions into the bladder. A control CMG was performed by slowly filling the bladder with saline (0.04 ml/min) to elicit repetitive voiding. The amplitude, PT, compliance and intercontraction interval (ICI) of reflex bladder contractions were recorded. Pressure threshold (PT) represents the pressure that induces the initial bladder contraction. PT often has been used as a parameter corresponding to afferent nerve activity for the induction of reflex bladder contractions. Measurements in each animal represented the average of 3 to 5 bladder contractions.
After performing control CMGs with saline infusion, three intravesical infusion experiments were performed in parallel: (1) infusion of KCl (100 or 500 mM in saline) for one hour (N=4 in each group); (2) infusion of PS (Sigma Chemical Co.; 30 mg/ml in saline) for one hour (N=6); and (3) infusion of PS (10 mg/ml) for one hour, followed by 100, 300 or 500 mM KCl for one hour (N=6, in each subgroup). In four animals, capsaicin dissolved in a vehicle containing 10% ethanol, 10% TWEEN®80 and 80% physiological saline, at a concentration of 20 mg/ml was given subcutaneously in divided doses on 2 consecutive days. The doses included 25 and 50 mg/kg at a 12-hour interval on the first day and 50 mg/kg on the second day, as previously described (C. L. Cheng et al., 1993, Am. J. Physiol. 265:R132-138). All injections were performed under halothane anesthesia. Four days after the last dosage of capsaicin, the animals were anesthetized and treated with intravesical administration of PS (10 mg/ml) for 1 hour followed by KCl (500 mM) infusion.
Suppression of Micturition Reflex. To evaluate the direct effects of potassium on detrusor muscle, micturition reflex was blocked in 4 animals by either intravenous hexamethonium injection (25 mg/kg) (N=2) or transection of bilateral pelvic nerves (N=2).
Statistical Analysis. Statistical analyses were performed using Student's t test for paired or unpaired data, as applicable, with p<0.05 considered significant. Quantitative data are expressed in Example 8 (below) as means plus or minus standard error.

[1] = 100 mM KCl alone, one hour, N=4
[2] = 100 mM KCl following 10 mg/ml PS, N=6
[3] = 300 mM KCl following 10 mg/ml PS, N=6
[4] = 300 mM KCl following PS 10 mg/ml
[5] = 500 mM KCl alone, one hour, N=4
[6] = 500 mM KCl following 10 mg/ml PS, N=6
[7] = 500 mM KCl following PS 10 mg/ml
[8] = KCl 500 mM 1 hr after one hour PS 10 mg/ml, capsaicin pretreated animals, N=4
[9] = KCl 500 mM 2 hr after one hour PS 10 mg/ml, capsaicin pretreated animals, N=4
[10] = KCl 500 mM following PS 10 mg/ml, micturition reflex suppressed animals
[11] = capsaicin pretreated animals, PS 10 mg/ml then KCl 500 mM, 2 hours of infusion

Which results are given for `[Cl-].[K+]` [KCl]?
Amplitude [1]: 28.2 ± 0.5 cm H2O; Compliance [1]: 0.205 ± 0.032 ml/cm H2O; ICI [1]: 13.8 ± 2.0 min; PT [1]: 5.9 ± 0.5 cm H2O; Amplitude [2]: 28.2 ± 3.7 cm H2O; Compliance [2]: 0.157 ± 0.022 ml/cm H2O; ICI [2]: 18.8 ± 2.1 min; PT [2]: 3.0 ± 1.3 cm H2O; Amplitude [3]: 31.3 ± 0.7 cm H2O; Compliance [3]: 0.066 ± 0.012 ml/cm H2O; ICI [3]: 5.2 ± 1.7 min; PT [3]: 3.3 ± 0.9 cm H2O; ICI decrease [4]: 76.9%; compliance decrease [4]: 60%; contraction amplitude increase [4]: 23.7%; onset of irritation (delay) [4]: 20 to 30 min; Amplitude [5]: 28.8 ± 1.2 cm H2O; Compliance [5]: 0.237 ± 0.023 ml/cm H2O; ICI [5]: 15.8 ± 2.4 min; PT [5]: 8.2 ± 0.9 cm H2O; Amplitude [6]: 29.5 ± 3.4 cm H2O; Compliance [6]: 0.075 ± 0.009 ml/cm H2O; ICI [6]: 3.2 ± 1.3 min; PT [6]: 5.4 ± 1.0 cm H2O; ICI decrease [7]: 82.9%; compliance decrease [7]: 63.4%; contraction amplitude increase [7]: 21.4%; onset of irritation (delay) [7]: 10 to 15 min; PT change (300 or 500 mM KCl following PS 10 mg/ml): not significantly altered; Amplitude [8]: 20.3 ± 0.3 cm H2O; Compliance [8]: 0.218 ± 0.013 ml/cm H2O; ICI [8]: 21.3 ± 2.8 min; PT [8]: 5.8 ± 0.5 cm H2O; Amplitude [9]: 16.0 ± 1.7 cm H2O; Compliance [9]: 0.100 ml/cm H2O and 0.100 ± 0.016 ml/cm H2O; ICI [9]: 13.1 ± 2.8 min; PT [9]: 7.6 ± 1.7 cm H2O; Compliance [10]: 0.041±0.011 ml/cm H2O; compliance decrease [10]: 55.9%; detrusor muscle / bladder compliance [10]: stimulated the detrusor muscle and decreased bladder compliance; irritative effects / CMG parameters (KCl 100 or 500 mM alone): not observed; also recorded: not significantly different from those during saline administration; ICI decrease [11]: 36%; compliance decrease [11]: 55%; bladder hyperactivity (high concentrations of KCl (300/500 mM) following one hour of PS 10 mg/ml): induced bladder hyperactivity (decrease ICI); CMG parameters (low concentration KCl (100 mM), one hour, following PS 10 mg/ml): did not produce significant changes in the CMG parameters; also recorded: had no effect
